The values that follow come from PMC5688156, “The natural product carolacton inhibits folate-dependent C1 metabolism by targeting FolD/MTHFD” (Nature Communications, 2017).

One data set has as its system U-937. The data set is described as follows: Cytotoxicity screening, U-937 (alamar blue). Format: cell-based, human. The note with it: for EC50: 5 d, alamar blue. The protocol: (§1) Half maximal effective concentrations (EC50) on human cancer cell lines were determined as described elsewhere. Human cancer cell lines were maintained as recommended by the depositor (German Collection of Microorganisms and Cell Cultures, DSMZ) and were treated for 5 d with carolacton in serial dilution. The viability of adherent cell types, HCT-116 (ACC 581), KB-3.1 (ACC-158) and KB-V.1 (ACC-149) was assessed by the addition of MTT tetrazolium salt and absorbance measurement at 570 nm. Histiocytic lymphoma U-937 cells (ACC-5) were maintained in RPMI 1640 medium and transferred into folate-free medium prior to the assay. Cell viability was determined by measuring alamar blue fluorescence emission at 590 nm. The values were referenced and EC50 values were determined by sigmoidal curve fitting. The cell lines KB-3.1 and KB-V.1 are originally derived from HeLa, whereas the latter is an MDR subclone of KB-3.1. They were used to directly compare the activity of carolacton on an mdr1 overexpressing and a sensitive cell line.

Another data set deals with L929 mouse cells. The arrangement: method as in doi:10.1002/ejoc.200901126, PMID 20659313. The conditions noted are these: cited from earlier work.
The next data set deals with HCT-116. Put plainly: Cytotoxicity screening, HCT-116 (MTT). Format: cell-based, human. The note with it: for EC50: 5 d treatment, MTT. The protocol:
as §1

Another data set concerns the target T1, spFolD (Streptococcus pneumoniae serotype 4, UniProt Q97RI9).
T1 construct: His-tag (TEV-cleavable, vector pHis-TEV); made in house; host or cells: E. coli BL21 (DE3)
The data set is described as follows: SPR binding to spFolD. The arrangement: species or system S. pneumoniae. The protocol:
All surface plasmon resonance (SPR) experiments described in this study were performed on a Biacore X100 system. Different FolDs with or without His-tag were coupled on CM5 sensor chips (GE Healthcare) by the amine coupling method using a kit from GE Healthcare Life Sciences (Freiburg, Germany). A pH scouting process was performed before protein immobilization to test the most appropriate buffer and the protein concentration for protein coupling. Finally, 20 μg/mL of ecFolD in 10 mM maleate buffer (pH 6.8), 30 μg/mL of ecFolD Q98H in 10 mM maleate buffer (pH 6.3), 40 μg/mL of ecFolD K54N in 10 mM maleate buffer (pH 5.8), 20 μg/mL of spFolD in 10 mM maleate buffer (pH 6.0) and 15 μg/mL of MTHFD2 (His-tag cleaved) in 10 mM maleate buffer (pH 6.8) were used for coupling. In the protein immobilization procedure, the contact time was calculated based on the pH scouting results to achieve ~3000–5000 relative resonance units (RU). The buffer used in the SPR assays was 1× HBS-P buffer (10 mM HEPES pH 7.4, 150 mM NaCl, 0.05% Tween 20). The 1 mM stock solution of carolacton was prepared in 1× HBS-P buffer and diluted to different concentration ranges by two-fold serial dilution. In the SPR assay, the association time was 180 s and the dissociation time was 600 s. Data analysis was performed using the Biacore evaluation software. […]

T1 sequence (Q97RI9 whole entry): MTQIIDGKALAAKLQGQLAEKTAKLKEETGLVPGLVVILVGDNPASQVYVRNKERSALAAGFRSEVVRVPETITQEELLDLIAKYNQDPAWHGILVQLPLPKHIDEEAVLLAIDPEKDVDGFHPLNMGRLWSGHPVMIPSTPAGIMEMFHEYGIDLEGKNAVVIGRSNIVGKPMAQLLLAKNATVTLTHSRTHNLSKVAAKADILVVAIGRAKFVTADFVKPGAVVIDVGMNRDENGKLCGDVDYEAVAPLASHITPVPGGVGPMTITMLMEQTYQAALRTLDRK

For `CO[C@H](CC(=O)O)[C@@H](C)C(=O)[C@H](C)/C=C(\C)[C@H]1OC(=O)[C@H](O)[C@H](O)/C=C/[C@H](C)CCC[C@@H]1C` [carolacton], the EC50 with U-937 (Homo sapiens, U-937, 120 h, folate-depleted medium) is 42 µM; in the data set with U-937 (Homo sapiens, U-937, 120 h, normal culture medium (RPMI 1640)), above 100 µM; with U-937 (folate-depleted medium), 41.7 ± 15.2 µM; with HCT-116, 24.6 ± 0.8 µM; in the data set with HCT-116 (Homo sapiens, HCT-116, 120 h), 25 µM. Moreover, the Maximum inhibition in the data set on U-937 (folate-depleted medium) is on record as 65–75%; in the data set on HCT-116 (inhibition of cell growth, 5 d), above 80%. The “acute toxicity to L929 mouse cells” value with L929 mouse cells is given as “no acute toxicity”. At spFolD, this molecule had a Kd of 0.027 µM. At spFolD, this molecule yielded a koff of 0.0316 s⁻¹.
